From ChEMBL document CHEMBL3882729, “Receptor-type kinase modulators and methods of use” (2009)

Columns and labels:
[1] = biological target: Receptor tyrosine-protein kinase erbB-2 (Homo sapiens, UniProt P04626); assay: Inhibition of recombinant human N-terminal GST His6-tagged thrombin cleavage site-fused ErbB2 kinase domain (Q679 to V1255 residues) expressed in baculovirus infected insect Sf9 cells using biotinylated poly-EY as substrate after 60 mins by alphascreen assay
[2] = biological target: Vascular endothelial growth factor receptor 2 (Homo sapiens, UniProt P35968); assay: Inhibition of recombinant human N-terminal GST-fused KDR (D807 to V1356 residues) expressed in baculovirus infected […] insect Sf9 cells using poly-EY as substrate after 240 mins by luciferase coupled chemiluminescence assay
Sequence of Vascular endothelial growth factor receptor 2 (P35968 whole entry, the tested form may be a part): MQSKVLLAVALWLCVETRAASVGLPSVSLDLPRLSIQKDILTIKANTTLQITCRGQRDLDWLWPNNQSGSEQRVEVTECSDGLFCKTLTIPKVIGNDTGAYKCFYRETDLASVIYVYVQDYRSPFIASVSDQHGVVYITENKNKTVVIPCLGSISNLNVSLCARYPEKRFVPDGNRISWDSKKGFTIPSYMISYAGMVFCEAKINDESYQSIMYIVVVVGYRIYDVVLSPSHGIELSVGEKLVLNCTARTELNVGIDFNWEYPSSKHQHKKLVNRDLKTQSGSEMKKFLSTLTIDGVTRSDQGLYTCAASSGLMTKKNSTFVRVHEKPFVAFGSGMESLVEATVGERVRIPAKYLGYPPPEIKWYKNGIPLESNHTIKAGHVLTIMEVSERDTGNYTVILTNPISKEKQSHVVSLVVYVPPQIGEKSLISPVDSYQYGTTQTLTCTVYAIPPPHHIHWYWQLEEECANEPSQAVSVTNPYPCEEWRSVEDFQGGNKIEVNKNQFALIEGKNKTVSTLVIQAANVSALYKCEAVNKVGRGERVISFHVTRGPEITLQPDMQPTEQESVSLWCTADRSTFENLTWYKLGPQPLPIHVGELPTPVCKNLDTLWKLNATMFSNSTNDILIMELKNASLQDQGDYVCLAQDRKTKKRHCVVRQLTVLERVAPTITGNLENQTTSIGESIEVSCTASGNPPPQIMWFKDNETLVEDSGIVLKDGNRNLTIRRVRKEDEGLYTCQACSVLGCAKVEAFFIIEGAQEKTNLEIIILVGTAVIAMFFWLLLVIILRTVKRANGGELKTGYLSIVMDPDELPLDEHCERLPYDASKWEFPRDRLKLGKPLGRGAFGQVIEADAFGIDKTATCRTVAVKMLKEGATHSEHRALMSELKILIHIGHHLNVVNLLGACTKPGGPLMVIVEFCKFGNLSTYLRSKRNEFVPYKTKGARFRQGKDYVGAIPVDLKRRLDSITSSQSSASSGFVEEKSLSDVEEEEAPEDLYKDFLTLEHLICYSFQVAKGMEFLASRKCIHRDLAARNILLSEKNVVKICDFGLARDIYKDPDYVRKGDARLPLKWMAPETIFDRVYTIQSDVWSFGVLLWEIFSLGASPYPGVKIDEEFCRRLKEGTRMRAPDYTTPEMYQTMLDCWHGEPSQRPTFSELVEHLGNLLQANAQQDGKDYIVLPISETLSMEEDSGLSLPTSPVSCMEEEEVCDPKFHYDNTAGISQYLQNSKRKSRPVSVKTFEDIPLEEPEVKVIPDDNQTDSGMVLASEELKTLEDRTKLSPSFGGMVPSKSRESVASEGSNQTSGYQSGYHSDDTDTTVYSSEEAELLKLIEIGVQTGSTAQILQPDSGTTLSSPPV

[3] = biological target: Vascular endothelial growth factor receptor 1 (Homo sapiens, UniProt P17948); assay: Inhibition of recombinant human N-terminal GST-tagged factor 10a cleavage site-fused Flt1 (K784 to I1338 residues) expressed in baculovirus infected insect Sf9 cells using poly-EY as substrate after 120 mins in presence of gamma33P-ATP by liquid scintillation spectrometry
Sequence of Vascular endothelial growth factor receptor 1 (P17948 whole entry, the tested form may be a part): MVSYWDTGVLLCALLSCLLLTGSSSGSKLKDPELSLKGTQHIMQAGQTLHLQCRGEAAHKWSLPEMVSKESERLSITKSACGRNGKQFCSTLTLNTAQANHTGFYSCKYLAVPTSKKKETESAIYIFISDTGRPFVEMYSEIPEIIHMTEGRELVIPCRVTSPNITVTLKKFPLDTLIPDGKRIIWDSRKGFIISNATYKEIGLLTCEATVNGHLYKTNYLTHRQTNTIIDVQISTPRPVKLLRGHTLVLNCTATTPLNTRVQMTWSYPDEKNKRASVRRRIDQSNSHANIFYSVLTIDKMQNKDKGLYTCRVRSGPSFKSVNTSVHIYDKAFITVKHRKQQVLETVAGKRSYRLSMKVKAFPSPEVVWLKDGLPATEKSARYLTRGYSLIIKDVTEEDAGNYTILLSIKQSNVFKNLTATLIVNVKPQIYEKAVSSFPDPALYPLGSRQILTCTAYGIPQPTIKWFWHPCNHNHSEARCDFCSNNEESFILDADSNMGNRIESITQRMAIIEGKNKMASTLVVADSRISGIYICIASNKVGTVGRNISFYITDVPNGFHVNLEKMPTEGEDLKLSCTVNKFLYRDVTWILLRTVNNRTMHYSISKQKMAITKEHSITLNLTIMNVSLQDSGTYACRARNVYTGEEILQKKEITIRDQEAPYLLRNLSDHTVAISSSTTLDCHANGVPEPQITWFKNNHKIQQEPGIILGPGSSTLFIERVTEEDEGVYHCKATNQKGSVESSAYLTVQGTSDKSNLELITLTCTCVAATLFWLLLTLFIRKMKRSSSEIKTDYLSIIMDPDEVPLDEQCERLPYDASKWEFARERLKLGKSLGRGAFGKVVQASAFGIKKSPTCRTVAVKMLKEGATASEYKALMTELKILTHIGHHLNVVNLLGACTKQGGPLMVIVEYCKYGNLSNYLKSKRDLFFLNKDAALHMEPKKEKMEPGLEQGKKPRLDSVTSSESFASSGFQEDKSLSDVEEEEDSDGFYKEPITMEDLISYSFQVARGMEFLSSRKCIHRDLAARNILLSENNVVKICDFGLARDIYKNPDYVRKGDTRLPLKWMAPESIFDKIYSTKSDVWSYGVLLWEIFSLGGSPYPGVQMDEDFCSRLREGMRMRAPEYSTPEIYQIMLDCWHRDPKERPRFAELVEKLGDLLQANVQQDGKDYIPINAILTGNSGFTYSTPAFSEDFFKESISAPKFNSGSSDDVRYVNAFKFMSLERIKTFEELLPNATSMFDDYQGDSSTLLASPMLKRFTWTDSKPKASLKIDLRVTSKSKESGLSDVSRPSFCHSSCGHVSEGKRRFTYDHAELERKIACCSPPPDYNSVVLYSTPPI

[4] = biological target: Ephrin type-A receptor 2 (Homo sapiens, UniProt P29317); assay: Inhibition of recombinant human N-terminal His6-tagged EphA2 (N598 to R890 residues) expressed in baculovirus using poly-EY as substrate after 180 mins by luciferase coupled chemiluminescence assay
Sequence of Ephrin type-A receptor 2 (P29317 whole entry, the tested form may be a part): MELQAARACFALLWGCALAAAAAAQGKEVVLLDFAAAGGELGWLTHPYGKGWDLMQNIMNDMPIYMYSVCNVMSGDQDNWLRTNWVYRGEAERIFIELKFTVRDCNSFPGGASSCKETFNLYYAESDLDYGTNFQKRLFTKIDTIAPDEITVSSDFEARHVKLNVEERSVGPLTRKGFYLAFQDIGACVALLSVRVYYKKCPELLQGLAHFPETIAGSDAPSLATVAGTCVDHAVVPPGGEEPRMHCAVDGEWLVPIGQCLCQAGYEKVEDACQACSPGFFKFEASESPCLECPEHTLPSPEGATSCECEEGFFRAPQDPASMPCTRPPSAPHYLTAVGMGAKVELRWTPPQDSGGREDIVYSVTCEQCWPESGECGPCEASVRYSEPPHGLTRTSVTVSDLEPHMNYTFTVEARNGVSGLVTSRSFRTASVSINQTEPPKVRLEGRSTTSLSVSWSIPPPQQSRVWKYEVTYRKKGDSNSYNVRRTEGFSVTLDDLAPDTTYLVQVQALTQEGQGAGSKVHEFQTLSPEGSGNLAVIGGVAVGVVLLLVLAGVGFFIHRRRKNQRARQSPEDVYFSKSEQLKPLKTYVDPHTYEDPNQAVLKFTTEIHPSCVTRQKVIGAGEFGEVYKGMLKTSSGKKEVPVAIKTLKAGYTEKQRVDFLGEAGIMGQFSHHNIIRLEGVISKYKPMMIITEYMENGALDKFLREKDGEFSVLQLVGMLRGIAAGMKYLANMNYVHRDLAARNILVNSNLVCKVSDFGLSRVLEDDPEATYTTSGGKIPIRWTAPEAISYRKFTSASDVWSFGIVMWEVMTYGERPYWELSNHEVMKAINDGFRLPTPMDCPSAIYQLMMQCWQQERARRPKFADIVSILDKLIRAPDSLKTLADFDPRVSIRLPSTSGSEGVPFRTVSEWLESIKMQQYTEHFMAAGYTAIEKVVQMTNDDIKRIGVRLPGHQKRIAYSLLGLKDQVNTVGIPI

[5] = biological target: T1, Ephrin type-B receptor 4 (Homo sapiens, UniProt P54760); assay: Inhibition of recombinant human N-terminal His6-tagged EphB4 kinase domain (E605 to E890 residues) expressed in baculovirus using poly-AEKY as substrate after 150 mins in presence of gamma33P-ATP by liquid scintillation spectrometry
T1 sequence (P54760 whole entry): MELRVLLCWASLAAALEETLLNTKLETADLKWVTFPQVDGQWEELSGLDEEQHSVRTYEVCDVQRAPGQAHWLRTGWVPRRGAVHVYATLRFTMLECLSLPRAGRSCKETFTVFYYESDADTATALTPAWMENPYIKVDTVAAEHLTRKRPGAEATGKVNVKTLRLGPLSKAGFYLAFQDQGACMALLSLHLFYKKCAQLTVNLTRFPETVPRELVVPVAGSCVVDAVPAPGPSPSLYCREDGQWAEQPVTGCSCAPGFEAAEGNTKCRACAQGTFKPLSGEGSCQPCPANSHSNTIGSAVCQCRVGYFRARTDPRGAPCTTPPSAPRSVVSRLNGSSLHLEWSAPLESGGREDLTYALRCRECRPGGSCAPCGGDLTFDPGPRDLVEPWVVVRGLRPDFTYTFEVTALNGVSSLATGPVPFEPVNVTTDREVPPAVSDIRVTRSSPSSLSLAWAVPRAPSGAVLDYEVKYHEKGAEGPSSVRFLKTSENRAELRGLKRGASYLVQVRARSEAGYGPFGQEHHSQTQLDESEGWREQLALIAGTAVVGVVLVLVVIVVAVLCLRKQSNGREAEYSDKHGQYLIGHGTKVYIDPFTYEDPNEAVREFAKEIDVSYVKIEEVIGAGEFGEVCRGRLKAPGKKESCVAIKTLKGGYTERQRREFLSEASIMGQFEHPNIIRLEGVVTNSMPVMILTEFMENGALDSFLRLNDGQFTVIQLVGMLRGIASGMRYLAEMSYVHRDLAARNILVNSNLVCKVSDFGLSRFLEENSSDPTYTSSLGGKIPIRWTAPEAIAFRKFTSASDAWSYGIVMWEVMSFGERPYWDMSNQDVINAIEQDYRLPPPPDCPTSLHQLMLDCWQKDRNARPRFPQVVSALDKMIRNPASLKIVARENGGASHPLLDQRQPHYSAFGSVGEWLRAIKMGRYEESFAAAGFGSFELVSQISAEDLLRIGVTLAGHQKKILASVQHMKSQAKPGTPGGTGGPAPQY

Sequence of Receptor tyrosine-protein kinase erbB-2 (P04626 whole entry, the tested form may be a part): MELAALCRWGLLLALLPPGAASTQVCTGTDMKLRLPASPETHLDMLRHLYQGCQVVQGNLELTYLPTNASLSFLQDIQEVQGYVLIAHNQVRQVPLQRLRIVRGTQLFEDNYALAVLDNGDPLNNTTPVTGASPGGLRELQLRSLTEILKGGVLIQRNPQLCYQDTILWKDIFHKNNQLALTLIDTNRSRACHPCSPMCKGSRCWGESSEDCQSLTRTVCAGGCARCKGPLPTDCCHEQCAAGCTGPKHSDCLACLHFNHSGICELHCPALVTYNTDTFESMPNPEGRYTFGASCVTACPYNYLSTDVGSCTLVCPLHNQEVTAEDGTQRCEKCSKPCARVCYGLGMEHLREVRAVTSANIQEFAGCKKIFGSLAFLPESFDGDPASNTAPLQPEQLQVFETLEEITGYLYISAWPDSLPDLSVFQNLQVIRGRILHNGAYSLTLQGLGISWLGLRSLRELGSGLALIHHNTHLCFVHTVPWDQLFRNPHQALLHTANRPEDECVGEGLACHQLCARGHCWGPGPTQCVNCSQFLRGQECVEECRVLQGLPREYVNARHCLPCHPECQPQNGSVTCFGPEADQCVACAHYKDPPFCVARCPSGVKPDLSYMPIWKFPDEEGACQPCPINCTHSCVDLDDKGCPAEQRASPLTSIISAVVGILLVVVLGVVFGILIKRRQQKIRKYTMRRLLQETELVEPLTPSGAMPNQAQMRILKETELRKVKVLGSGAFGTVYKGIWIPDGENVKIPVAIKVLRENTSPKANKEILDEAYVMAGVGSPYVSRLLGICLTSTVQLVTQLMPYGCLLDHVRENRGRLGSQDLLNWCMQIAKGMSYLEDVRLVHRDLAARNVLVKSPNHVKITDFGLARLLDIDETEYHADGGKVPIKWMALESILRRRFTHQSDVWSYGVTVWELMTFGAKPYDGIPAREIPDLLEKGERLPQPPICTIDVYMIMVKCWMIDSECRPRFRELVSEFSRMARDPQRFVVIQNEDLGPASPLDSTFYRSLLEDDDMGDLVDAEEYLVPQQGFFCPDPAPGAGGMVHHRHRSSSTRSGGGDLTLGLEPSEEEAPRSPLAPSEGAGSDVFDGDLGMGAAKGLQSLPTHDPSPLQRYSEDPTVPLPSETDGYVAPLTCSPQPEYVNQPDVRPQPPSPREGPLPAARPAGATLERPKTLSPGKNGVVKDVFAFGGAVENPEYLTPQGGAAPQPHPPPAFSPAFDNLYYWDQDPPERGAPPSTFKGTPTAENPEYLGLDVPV

Row | IC50 [1] | IC50 [2] | IC50 [3] | IC50 [4] | IC50 [5] | SMILES
1 | 0.05 to 1 µM | < 0.05 µM | 0.05 to 1 µM | < 0.05 µM | < 0.05 µM | COc1cc2c(Nc3ccc(Br)c(Cl)c3Cl)ncnc2cc1OC[C@@H]1CN2CCC[C@H]2CO1
2 | < 0.05 µM | < 0.05 µM | 0.05 to 1 µM | < 0.05 µM | < 0.05 µM | COc1cc2c(Nc3ccc(Cl)c(Cl)c3F)ncnc2cc1OC[C@@H]1C[C@@H]2CN(C)C[C@@H]2C1 [TESEVATINIB]
